According to patent US20250230193A1, “CYCLIC COMPOUND HAVING SELECTIVE KRAS INHIBITORY EFFECT ON HRAS AND NRAS” (CHUGAI SEIYAKU KABUSHIKI KAISHA, priority 2022, published 2025):
Where a SMILES comes first, the peptide text is derived from it. Bridges are numbered along the chain shown (N, C = ends). [ ]: non-standard residue; d: D form. The star is where a group is joined. hPhe(3,5-F2-4-CF3) = N[C@@H](CCc1cc(F)c(C(F)(F)F)c(F)c1)C(=O)O; NPrPhe(4-CF3) = CCCN[C@@H](Cc1ccc(C(F)(F)F)cc1)C(=O)O; NMeGly(cPent) = CN[C@H](C(=O)O)C1CCCC1; αMeI = CC[C@H](C)[C@](C)(N)C(=O)O; NMeD = CN[C@@H](CC(=O)O)C(=O)O; NMeL = CN[C@@H](CC(C)C)C(=O)O; Morpholide = C1CN(*)CCO1; Sar = CNCC(=O)O

Tests used:
[1] = molecular target: GDP-bound HRAS wild-type protein (Homo sapiens, UniProt P01112); assay: Binding to HRAS by surface plasmon resonance (SPR), Single Cycle Kinetics
[2] = molecular target: GDP-bound NRAS wild-type protein (Homo sapiens, UniProt P01111); assay: Binding to NRAS by surface plasmon resonance (SPR), Single Cycle Kinetics
[3] = KD ratio, GDP-bound HRAS wild-type vs GDP-bound KRAS wild-type, SPR
[4] = KD ratio, GDP-bound NRAS wild-type vs GDP-bound KRAS wild-type, SPR

Chain of GDP-bound HRAS wild-type protein (P01112 whole entry): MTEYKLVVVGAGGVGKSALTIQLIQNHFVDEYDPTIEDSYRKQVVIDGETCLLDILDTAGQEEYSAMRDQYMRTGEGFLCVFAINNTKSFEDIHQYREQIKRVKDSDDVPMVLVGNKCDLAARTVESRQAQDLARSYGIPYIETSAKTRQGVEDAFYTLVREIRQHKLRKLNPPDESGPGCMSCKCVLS
Chain of GDP-bound NRAS wild-type protein (P01111 whole entry): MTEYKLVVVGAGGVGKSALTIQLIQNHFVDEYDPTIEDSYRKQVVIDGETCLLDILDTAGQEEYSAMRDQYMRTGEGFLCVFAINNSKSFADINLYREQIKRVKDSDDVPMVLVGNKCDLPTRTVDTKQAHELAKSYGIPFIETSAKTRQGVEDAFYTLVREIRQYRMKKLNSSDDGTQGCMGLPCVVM

CCO[C@@H]1C[C@H]2C(=O)NC3(CCC3)C(=O)N(C)[C@@H](C3CCCC3)C(=O)N(C)[C@H](C(=O)N(C)C)CC(=O)N(C)[C@@H](CC)C(=O)N[C@@H]([C@@H](C)CC)C(=O)N(C)CC(=O)N(C)[C@H]3CCCCCN(C3=O)[C@@H](Cc3ccc(F)c(Cl)c3)C(=O)N(C)CC(=O)N[C@@H](CCc3cc(F)c(C(F)(F)F)c(F)c3)C(=O)N2C1 [PP0909]
HRAS/KRAS (ratio of KD value with respect to HRAS to KD value with respect to KRAS) [1, 3]: B (a compound having 3 or more and less than 10 is denoted as B) | NRAS/KRAS (ratio of KD value with respect to NRAS to KD value with respect to KRAS) [2, 4]: B (a compound having 3 or more and less than 10 is denoted as B)

CCO[C@@H]1C[C@H]2C(=O)NC3(CCC3)C(=O)N(C)[C@@H](C3CCCC3)C(=O)N(C)[C@H](C(=O)N(C)C)CC(=O)N(C)[C@@H](Cc3cccc(F)c3)C(=O)N[C@@H]([C@@H](C)CC)C(=O)N(C)CC(=O)N(C)[C@H]3C/C=C\CCN(C3=O)[C@@H](Cc3ccc(C(F)(F)F)cc3)C(=O)N(C)CC(=O)N[C@@H](CCc3cc(F)c(C(F)(F)F)c(F)c3)C(=O)N2C1 [PP1126]
HRAS/KRAS (ratio of KD value with respect to HRAS to KD value with respect to KRAS) [1, 3]: A (a compound having 10 or more and less than 20 is denoted as A) | NRAS/KRAS (ratio of KD value with respect to NRAS to KD value with respect to KRAS) [2, 4]: A (a compound having 10 or more and less than 20 is denoted as A)

CCCN1C(=O)CN(C)C(=O)CN(C)C(=O)[C@H]([C@@H](C)CC)NC(=O)[C@H](CC(C)C)N(C)C(=O)C[C@@H](C(=O)N2CCOCC2)N(C)C(=O)[C@H](C2CCCC2)N(C)C(=O)[C@](C)([C@@H](C)CC)NC(=O)[C@@H]2CCCN2C(=O)[C@H](CCc2cc(F)c(C(F)(F)F)c(F)c2)NC(=O)CN(C)C(=O)[C@@H]1Cc1ccc(C(F)(F)F)cc1 [PP0757] ([NMeL]I[Sar][Sar][NPrPhe(4-CF3)][Sar][hPhe(3,5-F2-4-CF3)]P[αMeI][NMeGly(cPent)][NMeD]-Morpholide; lactam N-11)
HRAS/KRAS (ratio of KD value with respect to GDP-bound HRAS wild-type protein to KD value with respect to KRAS) ([1]; SPR): C (A compound having a KD ratio of 0.1 or more and less than 3 is denoted as C) | NRAS/KRAS (ratio of KD value with respect to GDP-bound NRAS wild-type protein to KD value with respect to KRAS) ([2]; SPR): B (a compound having 3 or more and less than 10 is denoted as B)

C#CC[C@H]1C(=O)N[C@@H]([C@@H](C)CC)C(=O)N(C)CC(=O)N(C)[C@H]2C/C=C\CCN(C2=O)[C@@H](Cc2ccc(C(F)(F)F)cc2)C(=O)N(C)CC(=O)N[C@@H](CCc2ccc(C(F)(F)F)c(OC)c2)C(=O)N2CC[C@H]2C(=O)NC2(CC(C)(C)C2)C(=O)N(C)[C@@H](C2CCCC2)C(=O)N(C)[C@H](C(=O)N(C)C)CC(=O)N1C [PP2909]
HRAS/KRAS (ratio of KD value with respect to GDP-bound HRAS wild-type protein to KD value with respect to KRAS) ([1]; class symbols): B (a compound having 3 or more and less than 10 is denoted as B) | NRAS/KRAS (ratio of KD value with respect to GDP-bound NRAS wild-type protein to KD value with respect to KRAS) ([2]; class symbols): B (a compound having 3 or more and less than 10 is denoted as B)

CCCN1CC(=O)NC2(CCC2)C(=O)N(C)[C@@H](C2CCCC2)C(=O)N(C)[C@H](C(=O)N(C)C)CC(=O)N(C)[C@@H](CC)C(=O)N[C@@H]([C@@H](C)CC)C(=O)N(C)CC(=O)N(C)[C@H]2C/C=C\CCN(C2=O)[C@@H](Cc2ccc(C(F)(F)F)cc2)C(=O)N(C)CC(=O)N[C@@H](CCc2cc(F)c(C(F)(F)F)c(F)c2)C1=O [PP1141]
HRAS/KRAS (ratio of KD value with respect to HRAS to KD value with respect to KRAS) [1, 3]: A (a compound having 10 or more and less than 20 is denoted as A) | NRAS/KRAS (ratio of KD value with respect to NRAS to KD value with respect to KRAS) [2, 4]: AA (a compound having 20 or more is denoted as AA)

CC[C@H](C)[C@@H]1NC(=O)[C@H](CC(C)C)N(C)C(=O)C[C@@H](C(=O)N(C)C)N(C)C(=O)[C@H](C2CCCC2)N(C)C(=O)C2(CCC2)NC(=O)[C@@H]2CC(F)(F)CN2C(=O)[C@H](CCc2ccc(C(F)(F)F)c(Cl)c2)NC(=O)CN(C)C(=O)[C@H](Cc2ccc(F)cc2)N2CCCCC[C@@H](C2=O)N(C)C(=O)CN(C)C1=O [PP0973]
HRAS/KRAS (ratio of KD value with respect to HRAS to KD value with respect to KRAS) [1, 3]: B (a compound having 3 or more and less than 10 is denoted as B) | NRAS/KRAS (ratio of KD value with respect to NRAS to KD value with respect to KRAS) [2, 4]: B (a compound having 3 or more and less than 10 is denoted as B)

CCC[C@H]1C(=O)N[C@@H]([C@@H](C)CC)C(=O)N(C)CC(=O)N(C)[C@H]2C/C=C\CCN(C2=O)[C@@H](Cc2ccc(C(F)(F)F)cc2)C(=O)N(C)CC(=O)N[C@@H](CCc2cc(F)c(C(F)(F)F)c(F)c2)C(=O)N2C[C@H](OCC)C[C@H]2C(=O)NC2(CCC2)C(=O)N(C)[C@@H](C2CCCC2)C(=O)N(C)[C@H](C(=O)N(C)CCOC)CC(=O)N1C [PP1331]
HRAS/KRAS (ratio of KD value for GDP-bound HRAS wild-type protein to KD value for KRAS) ([1]; SPR, KD ratio class): A (a compound having 10 or more and less than 20 is denoted as A) | NRAS/KRAS (ratio of KD value for GDP-bound NRAS wild-type protein to KD value for KRAS) ([2]; SPR, KD ratio class): A (a compound having 10 or more and less than 20 is denoted as A)

CCC[C@H]1C(=O)N[C@@H]([C@@H](C)CC)C(=O)N(C)CC(=O)N(C)[C@H]2C/C=C\CCN(C2=O)[C@@H](Cc2ccc(C(F)(F)F)cc2)C(=O)N(C)CC(=O)N[C@@H](CCc2cc(Cl)c3sccc3c2)C(=O)N2C[C@H](OCC)C[C@H]2C(=O)NC2(CC(C)(C)C2)C(=O)N(C)[C@@H](C2CCCC2)C(=O)N(C)[C@H](C(=O)N(C)C)CC(=O)N1C [PP2946]
HRAS/KRAS (ratio of KD value with respect to GDP-bound HRAS wild-type protein to KD value with respect to KRAS) ([1]; class symbols): A (a compound having 10 or more and less than 20 is denoted as A) | NRAS/KRAS (ratio of KD value with respect to GDP-bound NRAS wild-type protein to KD value with respect to KRAS) ([2]; class symbols): A (a compound having 10 or more and less than 20 is denoted as A)

CCCOC[C@H]1C(=O)N[C@@H]([C@@H](C)CC)C(=O)N(C)CC(=O)N(C)[C@H]2C/C=C\CCN(C2=O)[C@@H](Cc2ccc(C(F)(F)F)cc2)C(=O)N(C)CC(=O)N[C@@H](CCc2ccc(C(F)(F)F)c(Cl)c2)C(=O)N2C[C@H](OCC)C[C@H]2C(=O)NC2(CC(C)(C)C2)C(=O)N(C)[C@@H](C2CCCC2)C(=O)N(C)[C@H](C(=O)N(C)C)CC(=O)N1C [PP1754]
HRAS/KRAS (ratio of KD value for HRAS to KD value for KRAS) [1, 3]: A (a compound having 10 or more and less than 20 is denoted as A) | NRAS/KRAS (ratio of KD value for NRAS to KD value for KRAS) [2, 4]: A (a compound having 10 or more and less than 20 is denoted as A)

CCO[C@@H]1C[C@H]2C(=O)NC3(CCC3)C(=O)N(C)[C@@H](C3CCCC3)C(=O)N(C)[C@H](C(=O)N3CCOCC3)CC(=O)N(C)[C@@H](CC(C)C)C(=O)N[C@@H]([C@@H](C)CC)C(=O)N(C)CC(=O)N(C)[C@H]3CCCCCN(C3=O)[C@@H](Cc3ccc4sccc4c3)C(=O)N(C)CC(=O)N[C@@H](CCc3cc(F)c(C(F)(F)F)c(F)c3)C(=O)N2C1 [PP0920]
HRAS/KRAS (ratio of KD value with respect to HRAS to KD value with respect to KRAS) [1, 3]: B (a compound having 3 or more and less than 10 is denoted as B) | NRAS/KRAS (ratio of KD value with respect to NRAS to KD value with respect to KRAS) [2, 4]: B (a compound having 3 or more and less than 10 is denoted as B)

CC[C@H](C)[C@@H]1NC(=O)[C@H](CC(C)C)N(C)C(=O)C[C@@H](C(=O)N(C)C)N(C)C(=O)[C@H](C2CCCC2)N(C)C(=O)C2(CCCC2)NC(=O)[C@@H]2C[C@@H](C)CN2C(=O)[C@H](CCc2cc(F)c(C(F)(F)F)c(F)c2)NC(=O)CN(C)C(=O)[C@H](Cc2ccc(C)cc2)N2CC/C=C\C[C@@H](C2=O)N(C)C(=O)CN(C)C1=O [PP2189]
HRAS/KRAS (ratio of KD value with respect to HRAS to KD value with respect to KRAS) ([1]; SPR, GDP-bound HRAS wild-type vs GDP-bound KRAS wild-type): A (a compound having 10 or more and less than 20 is denoted as A) | NRAS/KRAS (ratio of KD value with respect to NRAS to KD value with respect to KRAS) ([2]; SPR, GDP-bound NRAS wild-type vs GDP-bound KRAS wild-type): A (a compound having 10 or more and less than 20 is denoted as A)
